# Test results: ChEMBL document CHEMBL1268888, “Antiviral activity of 2,3'-anhydro and related pyrimidine nucleosides against hepatitis B virus” (Bioorg Med Chem Lett, 2010)
# Legend:
# [1] = Cytotoxicity against human HuH7 cells; assay type: cell-based, Huh-7
# Hepatitis B virus [2] = experiment: Antiviral activity against HBV infected in human 2.2.15 cell at 10 ug/ml; assay type: functional, organism-based; conditions: HepG2 2.2.15
# Hepatitis B virus [3] = experiment: Antiviral activity against HBV infected in human 2.2.15 cell; assay type: functional, organism-based; conditions: HepG2 2.2.15
# Hepatitis B virus [4] = experiment: Antiviral activity against HBV infected in duck primary hepatocytes at 10 ug/ml; assay type: functional; conditions: Hepatocyte
# Hepatitis B virus [5] = experiment: Antiviral activity against HBV infected in duck primary hepatocytes; assay type: functional, organism-based; conditions: Hepatocyte
# [6] = Stability of the compound in PBS buffer at physiological pH and 37 degC upto 48 hrs; assay type: physicochemical
# [7] = Stability of the compound in fetal bovine serum at 37 degC after 24 hrs; assay type: ADME; conditions: cattle
SMILES,CC50 [1] [µg/mL],inhibition at 10 µg/mL (Hepatitis B virus [2]) [%],EC50 (Hepatitis B virus [3]) [µg/mL],inhibition at 10 µg/mL (Hepatitis B virus [4]) [%],EC50 (Hepatitis B virus [5]) [µg/mL],Stability [6],Stability [7]
Cc1cn([C@H]2C[C@@H](O)[C@@H](CO)O2)c(=O)[nH]c1=O,> 200,–,–,–,–,–,–
CCc1cn([C@@H]2O[C@H](CO)[C@@H](O)[C@@H]2F)c(=O)[nH]c1=O,> 200,90,< 10,–,–,–,–
Cc1cn([C@H]2C[C@H](O)[C@@H](CO)O2)c(=O)[nH]c1=O [DOXRIBTIMINE],> 200,0,–,–,–,–,–
CCc1cn([C@H]2C[C@H](O)[C@@H](CO)O2)c(=O)[nH]c1=O [EDOXUDINE],> 200,40,> 10,–,–,–,–
Cc1cn2c(nc1=O)O[C@H]1C[C@H]2O[C@@H]1CO,> 200,54,10,56,10,Stable,Stable
Cc1cn([C@H]2C[C@@H](OS(C)(=O)=O)[C@@H](CO)O2)c(=O)[nH]c1=S,> 200,45,> 10,70,2.5,–,–
O=c1[nH]c(=O)n([C@H]2C[C@H](O)[C@@H](CO)O2)cc1C(F)(F)F [TRIFLURIDINE],> 200,0,–,–,–,–,–
O=c1nc2n(cc1F)[C@H]1C[C@H](O2)[C@@H](CO)O1,> 200,0,–,30,–,Stable,Stable
O=c1ccn2c(n1)O[C@H]1C[C@H]2O[C@@H]1CO,> 200,65,5,67,2.5,Stable,Stable
CCc1cn2c(nc1=O)O[C@H]1[C@H](F)[C@H]2O[C@@H]1CO,> 200,53,10,65,2.5,Stable,Stable
CCc1cn2c(nc1=O)O[C@H]1C[C@H]2O[C@@H]1CO,> 200,51,10,32,–,Stable,Stable
O=c1ccn([C@H]2C[C@H](O)[C@@H](CO)O2)c(=O)[nH]1 [DEOXYURIDINE],> 200,0,–,–,–,–,–
Nc1ccn([C@@H]2CS[C@H](CO)O2)c(=O)n1 [LAMIVUDINE],> 200,88,0.2,96,0.05,–,–
O=c1nc2n(cc1C(F)(F)F)[C@H]1C[C@H](O2)[C@@H](CO)O1,> 200,25,–,35,> 10,Stable,Stable
